According to article PMC7806726, “Activated neutrophil fluorescent imaging technique for human lungs” (Scientific Reports, 2021):
Values belong to the compound of their own block, whether it stands above or below them. Numbered stars: 1 amine (or outer) side, 2 acyl side, 3 side chain; on linkers, the order of the positions; unused ones are H or OH. Bridge positions count the residues as written; N and C are the ends. Square brackets hold non-standard residues; d marks the D form. Peptide text beside a SMILES is read from it. I, II: the chains in the order shown. * marks the point of attachment. 5FAM = O=C1OC2(c3ccc(O)cc3Oc3cc(O)ccc32)c2ccc(C(=O)*)cc21; X1 = NC(=O)NC(COCCCN[*:1])(COCCCN[*:2])COCCCN[*:3]; Nle = CCCC[C@H](N)C(=O)O; AEEA = NCCOCCOCC(=O)O

Key:
[1] = tested on: freshly isolated neutrophils; experiment: Flow cytometry of intracellular NAP fluorescence in isolated neutrophils; assay type: cell-based, human; conditions: A23187 10 µM activated neutrophils, NAP 5 µM; Dynasore Hydrate 30 µM, DPI 10 µM, Sivelestat 100 µM; 30 min 37 °C
Protocol: Neutrophils were suspended in PBS with divalent cations at a concentration of 10 × 10^6/mL. […] Incubation took place at 37 °C for 30 min and samples were shaken at 500 rpm using an orbital plate shaker (Thermomixer comfort, Eppendorf, Hamburg, Germany). Suspensions were then incubated with anti-human CD11b-APC (1:100 dilution, Clone ICRF44, Biolegend, CA, USA) at 22 °C for 30 min at 500 rpm before the application of NAP to a final concentration of 5 µM for 15 min at 22 °C and 500 rpm. Cells were washed in PBS without divalent cations at 350 g for 5 min at room temperature using a microtube centrifuge (Biofuge fresco, Heraeus, Hanau, Germany) and reconstituted in 175 µL PBS without divalent cations. Samples were loaded onto a 96 round-bottomed well plate (Corning).
Flow cytometry was performed using an Accuri C6 flow cytometer and BD CSampler software (both Becton–Dickinson, NJ, USA). Compensation beads and single stain controls were used where appropriate. […] The cytometer was thresholded on forward scatter to eliminate debris. The cytometer was aligned monthly using Calibrite 3, APC and 8 peak beads (Becton–Dickinson) to calibrate scatter and fluorescence parameters.
Data analyses were performed using Flowjo v10.0.8r1 (Treestar, Ashland, OR, USA). Samples were repeated in duplicate for each individual donor and pooled to yield a point estimate for each condition and each donor. The point estimates from different donors were pooled to yield an overall mean point estimate for each condition ± SE.

[2] = tested on: rats; experiment: GLP toxicology study, delivery via the trachea; assay type: in vivo, rat
Protocol: NAP was delivered via the trachea to rats in a Contract Research Organization Good Laboratory Practice (GLP) toxicology study at approximately 700 times the human dose. NAP (100 µg) was instilled and rats underwent necroscopy at 3 and 15 days after delivery. […] The release specifications for NAP drug substance and drug product are shown in Supplementary tables S3 and S4.
All experiments using human volunteers were performed following approval from the appropriate regional ethics committee (REC) and informed consent was obtained from each participant or their personal legal representative for adults with incapacity (in accordance with the Adults with Incapacity (Scotland) Act 2000). BALF for alveolar macrophages: (East of Scotland Research Ethics Committee 1 no: 07/S1102/20), blood for assessment of leucocyte populations (Lothian Research Ethics Committee no: 08/S1103/38), and first-in-human assessment of probe performance and safety (Scotland A Research Ethics Committee no: 12/SS/0004, EudraCT 2011-006169-17, NCT01532024). All methods were performed in accordance with the relevant guidelines and regulations. Animal toxicology was conducted in compliance with UK Good Laboratory Practice Regulations by a third party contract research organization (Covance Laboratories Ltd, Harrogate, UK) under Covance UK Home Office License for toxicology. […]

[3] = molecular target: T1, human neutrophil elastase (HNE) (Homo sapiens, UniProt P08246); experiment: Plate reader assessment of probe de-quenching with purified HNE; assay type: biochemical
T1 construct: purchased Elastin Products Company, MO, USA
T1 sequence (P08246 30-267): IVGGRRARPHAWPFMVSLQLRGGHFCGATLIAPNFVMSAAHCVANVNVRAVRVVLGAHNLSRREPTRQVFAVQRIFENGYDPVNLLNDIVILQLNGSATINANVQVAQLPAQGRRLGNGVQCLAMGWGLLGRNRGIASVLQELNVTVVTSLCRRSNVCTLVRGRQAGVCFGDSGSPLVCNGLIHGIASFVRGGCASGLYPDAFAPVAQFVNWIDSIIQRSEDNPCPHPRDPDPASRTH
Protocol: To generate an emission spectrum, NAP was excited at 430 nm to ensure the spectrum could be visualized to the x-axis. Excitation/absorbance spectra were obtained with NAP diluted to 5 µM in PBS or freshly prepared pH buffer. Purified HNE (Elastin Products Company, MO, USA) and purified proteinase 3 (Sigma-Aldrich, Poole, UK) were made up according to the manufacturer’s instructions to yield appropriate stock concentrations. Stock preparations of purified enzyme were prepared according to manufacturers’ instructions and subsequently diluted appropriately with Phosphate Buffered Saline (PBS, Thermoscientific, MA, USA) and NAP to achieve a final volume of 200 µL per condition and a final NAP concentration of 5 µM. Solutions were prepared directly into 96 well plates (Corning, NY, USA) on ice, with or without the human neutrophil elastase inhibitor Sivelestat (ONO-5046, 100 µM, Tocris, Bristol, UK). Plates were subsequently incubated at 37 °C with fluorescent parameters recorded every minute for 1 h (Fig. 1C, excitation 488 nm, emission 525 nm). All fluorescence parameters were recorded using a microplate reader (Synergy H1 hybrid reader, BioTek, Potton, UK,).

[4] = tested on: erythrocytes; experiment: Erythrocyte haemolysis (membrane toxicity); assay type: cell-based, human; conditions: NAP 5 µM or working concentration × 2, 1 h 37 °C, absorbance 350 nm, vs Triton X-100 0.4%
Protocol: (§1) Membrane toxicity of NAP was assessed using erythrocyte haemolysis. Isolated erythrocytes remaining after leukocyte separation were diluted 1:5 with PBS without cations and 50 µL of this red cell suspension was added to wells of a 96-well plate. Working concentration of NAP (5 µM), or working concentration × 2, was added to the relevant well. Positive control wells contained Triton X-100 (0.4%, Sigma-Aldrich) and negative control wells contained PBS w/o only. The 96-well plate was incubated for one hour at 37 °C in a humidified environment. Following incubation, 180 µL of PBS without cations was added to each well and the plate was centrifuged at 2500 rpm for 10 min. 100 µL of supernatant from each well was removed and aliquoted into clean wells. Absorbance at 350 nm was recorded using a plate reader. Triplicate repeats were pooled to yield an overall mean point estimate ± SEM of haemolysis that was expressed as a percentage of the positive control. For neutrophil toxicity freshly isolated human peripheral neutrophils were resuspended at 10 × 10^6 cells/mL in IMDM with 10% autologous serum and cultured for 18hrs ± 5 µM NAP at 37 degrees in a 5% CO2 incubator. […] Duplicate repeats were pooled to yield an overall mean point estimate ± SEM of apoptosis and necrosis that was expressed as a percentage of total cells.

[5] = GLP AMES mutagenicity test, microsuspension-modified method
[6] = tested on: freshly isolated human peripheral neutrophils; experiment: Neutrophil toxicity (Annexin V / propidium iodide flow cytometry); assay type: cell-based; conditions: 5 µM NAP, 18 h, 37 °C, IMDM with 10% autologous serum, Annexin V/PI
Protocol: as §1

[7] = tested on: isolated healthy human neutrophils; experiment: Confocal time course of primed neutrophils activated with fMLF; assay type: cell-based; conditions: co-incubation with Sivelestat 100 µM; Cytochalasin B primed, fMLF 500 nM, NAP 5 µM
Protocol: Where stated commercial stains were used in accordance with the manufacturer’s instructions or applied to a suspension of the relevant cells in eppendorfs at a concentration of 1:1000 from delivered stock for 10 min at 37 °C and 500 rpm using an orbital plate shaker before undergoing one wash in PBS without divalent cations as described above. 8 well Lab-Tek II confocal chambers (VWR, PA, USA) were coated in fibronectin (1 µg/ml, Sigma-Aldrich) for 10 min at 37 °C. Wells were then washed twice before the addition of the appropriate cell suspension. Cells were typically seeded at a concentration of 0.5—1 × 10^6/mL. […]
A laser scanning confocal imaging system (LSM510; Carl Zeiss, Jena, Germany), incorporating an upright Axioskop FS2 microscope (× 63 objective) was used for image acquisition. […] Fluorescein based dyes were excited with a dedicated 488 nm laser line, with emitted light detected at 500–530 nm. Syto 82 nuclear, calcein cytoplasmic dyes and CellMask Orange plasma membrane stain (all Invitrogen, Thermoscientific) were excited with a dedicated 543 nm line, with emitted light detected at 560–600 nm. Syto 60 (Invitrogen, Thermoscientific) stain was excited with a dedicated 633 nm line, with emitted light detected at 650–680 nm. PKH labelled bacteria were excited with a dedicated 633 nm line with emitted light detected at 650–705 nm. […]

[8] = Change in fluorescence with pH (plate reader); assay type: physicochemical; conditions: carboxyfluorescein 15 µM, freshly made pH buffer; n = 1, in triplicate

Compound: c1ccc2c(c1)[I+]c1ccccc1-2 [DPI, Diphenyleneiodonium]
effect of inhibitor on intracellular NAP fluorescent signal (flow cytometry) [1]: reduced the overall mean fluorescent intensity

Compound: O.O=C(N/N=C/c1ccc(O)c(O)c1)c1cc2ccccc2cc1O [Dynasore Hydate, Dynasore Hydrate]
effect of inhibitor on intracellular NAP fluorescent signal (flow cytometry) [1]: abrogated

Compound: CCCC[C@H](NC(=O)[C@@H](NC(=O)[C@H](CCC(=O)O)NC(=O)[C@H](CCC(=O)O)NC(=O)COCCOCCNC(=O)c1ccc2c(c1)C(=O)OC21c2ccc(O)cc2Oc2cc(O)ccc21)[C@@H](C)CC)C(=O)N[C@@H](CCCNC(=N)N)C(=O)N[C@@H](CCCNC(=N)N)C(=O)NCCCOCC(COCCCNC(=O)[C@H](CCCNC(=N)N)NC(=O)[C@H](CCCNC(=N)N)NC(=O)[C@H](CCCC)NC(=O)[C@@H](NC(=O)[C@H](CCC(=O)O)NC(=O)[C@H](CCC(=O)O)NC(=O)COCCOCCNC(=O)c1ccc2c(c1)C(=O)OC21c2ccc(O)cc2Oc2cc(O)ccc21)[C@@H](C)CC)(COCCCNC(=O)[C@H](CCCNC(=N)N)NC(=O)[C@H](CCCNC(=N)N)NC(=O)[C@H](CCCC)NC(=O)[C@@H](NC(=O)[C@H](CCC(=O)O)NC(=O)[C@H](CCC(=O)O)NC(=O)COCCOCCNC(=O)c1ccc2c(c1)C(=O)OC21c2ccc(O)cc2Oc2cc(O)ccc21)[C@@H](C)CC)NC(N)=O (stereo partly drawn) [NAP] (I: {5FAM-AEEA}-EEI[Nle]RR / II: {5FAM-AEEA}-EEI[Nle]RR / III: {5FAM-AEEA}-EEI[Nle]RR; linker I:C-II:C-III:C via X1)
local or distant organ toxicity ([2]; NAP 100 µg instilled via the trachea (approximately 700 times the human dose), necroscopy at 3 and 15 days): No local or distant organ toxicity was observed
haematological or other metabolic consequences ([2]; NAP 100 µg instilled via the trachea, 3 and 15 days): no haematological or other metabolic consequences
increase in fluorescence compared to the resting state ([3]; NAP 5 µM in PBS with purified HNE, 37 °C, read every minute for 1 h, ex 488 nm / em 525 nm, three independent experiments): ~350%
red cell haemolysis [4]: did not cause
mutagenicity [5]: no mutagenicity
neutrophil necrosis [6]: did not cause

effect of inhibitor on cleavage of NAP by HNE ([3]; Sivelestat 100 µM, NAP 5 µM, 100 nM HNE): completely abrogated
Compound: CC(C)(C)C(=O)Oc1ccc(S(=O)(=O)Nc2ccccc2C(=O)NCC(=O)O)cc1 [Sivelestat]
effect of inhibitor on intracellular NAP fluorescent signal (flow cytometry) [1]: abrogated
effect of inhibitor on intracellular NAP fluorescent signal (confocal) [7]: abrogated

Compound: carboxyfluorescein
change in fluorescence with pH [8]: expected increase in fluorescence as H^+ concentration falls
